Results: US9718790B2, “Triazine derivative and pharmaceutical composition having an analgesic activity comprising the same” (SHIONOGI & CO., LTD., priority 2010, dated 2017)
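Also: stimulus was 50 nM ATP with fluorescence followed for 3 min, and the response per well was peak post-ATP fluorescence divided by the reading at measurement start.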

Each compound was assayed against human P2X3 receptor (Homo sapiens (Human), UniProt P56373) (assay: Evaluation of human P2X3 receptor inhibitory activity (Fluo-3 calcium fluorescence, FDSS 3000, ATP stimulation)). Conditions: C6BU-1 cells stably expressing human P2X3 receptor.
Sequence of human P2X3 receptor (P56373 whole entry): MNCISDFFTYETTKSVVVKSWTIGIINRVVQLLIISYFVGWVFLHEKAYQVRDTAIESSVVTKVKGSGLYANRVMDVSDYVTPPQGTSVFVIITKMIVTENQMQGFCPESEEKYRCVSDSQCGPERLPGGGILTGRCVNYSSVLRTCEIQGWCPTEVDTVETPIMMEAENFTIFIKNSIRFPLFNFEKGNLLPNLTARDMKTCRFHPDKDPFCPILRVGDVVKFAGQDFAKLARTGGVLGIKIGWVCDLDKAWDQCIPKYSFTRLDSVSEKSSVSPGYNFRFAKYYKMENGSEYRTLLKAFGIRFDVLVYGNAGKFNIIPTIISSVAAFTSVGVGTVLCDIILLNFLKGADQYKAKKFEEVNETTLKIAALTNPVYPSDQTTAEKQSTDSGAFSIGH
Format: cell-based
For `CC(C)c1cccc(/N=c2\[nH]c(=O)n(C[C@H](C)C(=O)O)c(=O)n2Cc2ccc(Cl)cc2)c1` [Compound I-0792], the IC50 was 170 nM. `COC(=O)[C@H](C)[C@H](C)n1c(=O)[nH]/c(=N\c2ccc3nc(C)ccc3c2)n(Cc2ccc(Cl)cc2)c1=O` [Compound I-1322] showed an IC50 of 20 nM. Work on `COC(=O)NCCn1c(=O)[nH]/c(=N\c2ccc(OC(C)C)c(F)c2)n(Cc2ccc(Cl)cc2)c1=O` [Compound I-0607] yielded an IC50 of 12 nM. `COC(=O)[C@@H](C)[C@@H](C)n1c(=O)[nH]/c(=N\c2ccc(N3CCCCC3)cc2)n(Cc2ccc(C)cc2)c1=O` [Compound I-1455] showed an IC50 of 32 nM. Work on `CCOC(=O)C(CNc1ccc(OC(C)C)c(C)c1)Cn1c(=O)[nH]/c(=N\c2ccc(OC(C)C)c(C)c2)n(Cc2ccc(Cl)cc2)c1=O` (stereo not shown) [Compound I-0778] yielded an IC50 of 84 nM. Compound `COC(=O)[C@@H](C)Cn1c(=O)[nH]/c(=N\c2ccc(N3CCCCCC3)cc2)n(Cc2ccc(Cl)cc2)c1=O` [Compound I-1233] has an IC50 of 325 nM. Work on `CCOC(=O)CCn1c(=O)[nH]/c(=N\c2ccc(CC(C)C)c(F)c2)n(Cc2ccc(C)cc2)c1=O` [Compound I-1298] yielded an IC50 of 26 nM. `CC(C)Oc1ccc(/N=c2\[nH]c(=O)n(C[C@@H]3CC(=O)N([C@H](C)c4ccccc4)C3)c(=O)n2Cc2ccc(Cl)cc2)cc1F` [Compound I-0662] showed an IC50 of 22 nM. `Cc1nc2ccc(/N=c3\[nH]c(=O)n(CCC(=O)O)c(=O)n3CC3CCC(C)CC3)cc2s1` (stereo not shown) [Compound I-1994] was tested, and the IC50 was 10 nM. Work on `C[C@@H](Oc1ccc(/N=c2\[nH]c(=O)n(CCC(N)=O)c(=O)n2Cc2ccc(Cl)cc2)cc1)C(F)(F)F` [Compound I-1956] yielded an IC50 of 34 nM. `CCc1oc2ccc(/N=c3\[nH]c(=O)n(C[C@H](C)C(=O)O)c(=O)n3Cc3ccc(Cl)cc3)cc2c1C` [Compound I-1465] was tested, and the IC50 was 6 nM. `COC(=O)[C@@H](C)[C@@H](C)n1c(=O)[nH]/c(=N\c2ccc(CC(C)C)c(Cl)c2)n(Cc2ccc(Cl)cc2)c1=O` [Compound I-1438] gave an IC50 of 63 nM. Work on `CNC(=O)CCn1c(=O)[nH]/c(=N\c2ccc(OC(C)C)c(Cl)c2)n(CC2CCC(C)CC2)c1=O` (stereo not shown) [Compound I-2019] yielded an IC50 of 5 nM. In the case of `CNC(=NC#N)NCCCn1c(=O)[nH]/c(=N\c2ccc(OC(C)C)c(F)c2)n(Cc2ccc(Cl)cc2)c1=O` [Compound I-0615], the IC50 is reported as 5 nM. `Cc1nc2ccc(/N=c3\[nH]c(=O)n([C@@H](C)[C@@H](C)C(=O)O)c(=O)n3Cc3ccc(Cl)cc3)cc2s1` [Compound I-1469] gave an IC50 of 9 nM. `COC(=O)[C@@H](C)[C@@H](C)n1c(=O)[nH]/c(=N\c2ccc(OC(C)C)c(F)c2)n(Cc2ccc(Cl)cc2)c1=O` [Compound I-1315] was tested, and the IC50 was 40 nM. In the case of `CCCc1ccc(/N=c2\[nH]c(=O)n(C[C@H](C)C(=O)OC)c(=O)n2Cc2ccc(C)cc2)cc1C` [Compound I-1210], the IC50 is reported as 37 nM. `CCn1c(=O)[nH]/c(=N\c2ccc(Oc3cncc(C(=O)O)c3)cc2)n(Cc2ccc(C)cc2)c1=O` [Compound I-2078] was tested, and the IC50 was 8 nM. `CC(C)Oc1ccc(/N=c2\[nH]c(=O)n(C(C)(C)C(=O)NCCO)c(=O)n2Cc2ccc(Cl)cc2)cc1Cl` [Compound I-0705] showed an IC50 of 11 nM. `CCCc1ccc(/N=c2\[nH]c(=O)n(C[C@H](C)C(=O)OC)c(=O)n2Cc2ccc(C)cc2)cc1OC` [Compound I-1360] was tested, and the IC50 was 32 nM. `CCOc1ccc(/N=c2\[nH]c(=O)n(C[C@@H](C)C(=O)OC)c(=O)n2Cc2ccc(Cl)cc2)cc1Cl` [Compound I-0590] was tested, and the IC50 was 4 nM. `CCn1c(=O)[nH]/c(=N\c2ccc(Oc3cccc(C(=O)OC)n3)cc2)n(Cc2ccc(Cl)cc2)c1=O` [Compound I-2067] gave an IC50 of 21 nM. Work on `COCc1cc(/N=c2\[nH]c(=O)n(CC(C)(C)C(=O)O)c(=O)n2Cc2ccc(Cl)cc2)ccc1OC(C)C` [Compound I-1430] yielded an IC50 of 709 nM. `C[C@@H](C(=O)O)[C@H](C)n1c(=O)[nH]/c(=N\c2ccc(N3CCCCC3)cc2)n(Cc2ccc(Cl)cc2)c1=O` [Compound I-1393] gave an IC50 of 35 nM. In the case of `C[C@@H](C(=O)O)[C@H](C)n1c(=O)[nH]/c(=N\c2ccc(Oc3cccnc3)cc2)n(Cc2ccc(Cl)cc2)c1=O` [Compound I-1390], the IC50 is reported as 15 nM. `CCn1c(=O)[nH]/c(=N\c2ccc(Oc3cccc(C(=O)O)c3)cc2)n(Cc2ccc(C)cc2)c1=O` [Compound I-2034] was tested, and the IC50 was 9 nM. `CCCc1ccc(/N=c2\[nH]c(=O)n(C[C@H](C)C(=O)OC)c(=O)n2Cc2ccc(Cl)cc2)cc1OC` [Compound I-1306] gave an IC50 of 80 nM.

Same assay, conditions: C6BU-1 cells stably expressing human P2X3 receptor, Fluo-3 fluorescence, FDSS 3000
`C[C@@H](C(=O)O)[C@H](C)n1c(=O)[nH]/c(=N\c2ccc3c(c2)CCC3=O)n(Cc2ccc(Cl)cc2)c1=O` [Compound I-1830] was tested, and the IC50 was 869 nM. For `C[C@@H](C(=O)O)[C@H](C)n1c(=O)[nH]/c(=N\c2ccc3c(c2)CCO3)n(Cc2ccc(Cl)cc2)c1=O` [Compound I-1833], the IC50 was 580 nM. Work on `COc1cc(/N=c2\[nH]c(=O)n(C[C@H](C)C(=O)O)c(=O)n2Cc2ccc(C)cc2)ccc1OC(C)C` [Compound I-1135] yielded an IC50 of 18 nM. With `CNC(=O)c1cc(Oc2ccc(/N=c3\[nH]c(=O)[nH]c(=O)n3Cc3ccc(Cl)cc3)cc2)ccn1` [Compound I-1846] the IC50 was 15 nM. Work on `C[C@@H](C(=O)O)[C@H](C)n1c(=O)[nH]/c(=N\c2ccc3[nH]c(=O)[nH]c(=O)c3c2)n(Cc2ccc(Cl)cc2)c1=O` [Compound I-1818] yielded an IC50 of 829 nM. For `COC(=O)[C@@H](C)Cn1c(=O)[nH]/c(=N\c2ccc(C=C(C)C)c(F)c2)n(Cc2ccc(C)cc2)c1=O` [Compound I-1171], the IC50 was 25 nM. With `COC(=O)CCn1c(=O)[nH]/c(=N\c2cc(C(=O)OC)n(C)c2)n(Cc2ccc(C)cc2)c1=O` [Compound I-1836] the IC50 was 787 nM. With `Cc1ccc(Cn2c(=O)n(C[C@H](C)C(=O)O)c(=O)[nH]/c2=N\c2ccc(OC(C)C)c(O)c2)cc1` [Compound I-1134] the IC50 was 35 nM. `COC(=O)[C@@H](C)Cn1c(=O)[nH]/c(=N\c2ccc(OC(C)C)c(C#N)c2)n(Cc2ccc(Cl)cc2)c1=O` [Compound I-0953] gave an IC50 of 42 nM. Compound `CCc1oc2ccc(/N=c3\[nH]c(=O)n(CC(=O)O)c(=O)n3Cc3ccc(Cl)cc3)cc2c1C` [Compound I-1609] has an IC50 of 187 nM.

Same assay, conditions: human P2X3 receptor, Test Example 1
Compound `CCn1c(=O)[nH]/c(=N\c2ccc(Oc3ccnc(C(N)=O)n3)cc2)n(Cc2ccc(Cl)cc2)c1=O` [Compound I-2532] has an IC50 of 5 nM. With `CCn1c(=O)[nH]/c(=N\c2ccc3nc(N4CCC4)sc3c2)n(Cc2ccc(Cl)cc2)c1=O` [Compound I-2280] the IC50 was 127 nM. `COC(=O)[C@@H](C)Cn1c(=O)[nH]/c(=N\c2ccc(OCC(F)F)cc2)n(Cc2ccc(Cl)cc2)c1=O` [Compound I-0846] showed an IC50 of 35 nM. `O=C(Cn1c(=O)[nH]/c(=N\c2ccc(Oc3cccnn3)cc2)n(Cc2ccc(Cl)cc2)c1=O)NCCO` [Compound I-2691] gave an IC50 of 8 nM. With `Cn1c(=O)[nH]/c(=N\c2ccc(Oc3cccc(C(=O)O)n3)c(F)c2)n(Cc2ccc(Cl)cc2)c1=O` [Compound I-2502] the IC50 was 7 nM. Work on `CCn1c(=O)[nH]/c(=N\c2ccc(Oc3cnc(C#N)nc3)cc2)n(Cc2ccc(Cl)cc2)c1=O` [Compound I-2281] yielded an IC50 of 2 nM. `COC(=O)CCn1c(=O)[nH]/c(=N\c2ccc(Oc3ccc(C#N)cn3)cc2)n(Cc2ccc(C)cc2)c1=O` [Compound I-2636] was tested, and the IC50 was 2 nM. Compound `O=c1[nH]/c(=N\c2ccc(Oc3cccc(F)n3)cc2)n(Cc2ccc(F)cc2)c(=O)n1CC(CO)CO` [Compound I-2583] has an IC50 of 15 nM. Work on `Cc1ccc(Cn2c(=O)n(C)c(=O)[nH]/c2=N\c2ccc(Oc3ccc(C(=O)O)cn3)cc2)cc1` [Compound I-2401] yielded an IC50 of 18 nM.
